Experimental findings from ChEMBL document CHEMBL3751764, “Synthesis and in vitro antiproliferative activity of novel pyrazolo[3,4-d]pyrimidine derivatives” (Medchemcomm, 2015) are described below.

By IC50 is commonly meant the concentration needed to halve the response being measured. A word on the EC50: it is the concentration at which the effect is half-maximal.

The subject of one assay is MCF7. Briefly: Cytotoxicity against human MCF7 cells after 72 hrs by SRB assay. The assay is classed as functional, cell-based. Particulars: MCF7, 72 h. On the technique in general: The SRB assay estimates cell density from bound dye.
Assay [1] deals with T1, Vascular endothelial growth factor receptor 2 (Homo sapiens, UniProt P35968). As to the kind of experiment: Inhibition of human VEGFR2 at 10 uM after 20 to 40 mins by liquid scintillation counting analysis in presence of […]. On the set-up: scale not given: the % may be the effect or the level left.
T1 sequence (P35968 whole entry): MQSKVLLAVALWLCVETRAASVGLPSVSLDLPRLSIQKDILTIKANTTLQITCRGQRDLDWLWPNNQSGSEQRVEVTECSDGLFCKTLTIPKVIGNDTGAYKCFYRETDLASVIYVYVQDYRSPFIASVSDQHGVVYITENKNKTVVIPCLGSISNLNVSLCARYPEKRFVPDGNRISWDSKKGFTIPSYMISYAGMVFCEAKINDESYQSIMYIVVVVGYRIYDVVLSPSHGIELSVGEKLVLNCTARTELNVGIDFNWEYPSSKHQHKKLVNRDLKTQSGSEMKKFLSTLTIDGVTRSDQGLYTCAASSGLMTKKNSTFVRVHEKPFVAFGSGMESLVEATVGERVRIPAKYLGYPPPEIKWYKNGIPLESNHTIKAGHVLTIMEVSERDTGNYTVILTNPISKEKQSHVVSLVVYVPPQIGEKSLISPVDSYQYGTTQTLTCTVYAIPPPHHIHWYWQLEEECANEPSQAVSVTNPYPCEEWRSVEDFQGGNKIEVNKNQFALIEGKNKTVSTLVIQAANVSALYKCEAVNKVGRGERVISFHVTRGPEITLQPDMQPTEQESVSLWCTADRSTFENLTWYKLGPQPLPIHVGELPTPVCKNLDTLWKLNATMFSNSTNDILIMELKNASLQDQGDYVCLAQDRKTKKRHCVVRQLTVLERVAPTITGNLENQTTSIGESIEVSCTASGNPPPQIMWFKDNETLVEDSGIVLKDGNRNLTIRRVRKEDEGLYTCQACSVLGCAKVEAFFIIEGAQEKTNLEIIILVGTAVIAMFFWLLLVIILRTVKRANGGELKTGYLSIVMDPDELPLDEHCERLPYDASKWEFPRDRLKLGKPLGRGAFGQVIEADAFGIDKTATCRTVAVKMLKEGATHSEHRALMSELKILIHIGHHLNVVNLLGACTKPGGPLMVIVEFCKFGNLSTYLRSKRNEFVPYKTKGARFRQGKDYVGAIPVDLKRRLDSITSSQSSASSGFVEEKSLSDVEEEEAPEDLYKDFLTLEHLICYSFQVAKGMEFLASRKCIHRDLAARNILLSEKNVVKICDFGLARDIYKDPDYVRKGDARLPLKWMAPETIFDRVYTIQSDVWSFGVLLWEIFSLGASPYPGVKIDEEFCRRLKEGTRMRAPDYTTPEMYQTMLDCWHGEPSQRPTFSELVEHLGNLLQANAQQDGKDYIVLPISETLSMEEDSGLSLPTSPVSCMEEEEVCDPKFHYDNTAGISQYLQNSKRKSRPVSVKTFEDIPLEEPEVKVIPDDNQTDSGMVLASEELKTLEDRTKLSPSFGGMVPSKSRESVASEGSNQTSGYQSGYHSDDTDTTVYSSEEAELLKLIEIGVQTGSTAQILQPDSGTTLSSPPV
For assay [2], the target named is Epidermal growth factor receptor (Homo sapiens) (UniProt P00533). As to the kind of experiment: Inhibition of human EGFR at 10 uM after 20 to 40 mins by liquid scintillation counting analysis in presence of […].
Sequence of Epidermal growth factor receptor (Homo sapiens) (P00533 whole entry): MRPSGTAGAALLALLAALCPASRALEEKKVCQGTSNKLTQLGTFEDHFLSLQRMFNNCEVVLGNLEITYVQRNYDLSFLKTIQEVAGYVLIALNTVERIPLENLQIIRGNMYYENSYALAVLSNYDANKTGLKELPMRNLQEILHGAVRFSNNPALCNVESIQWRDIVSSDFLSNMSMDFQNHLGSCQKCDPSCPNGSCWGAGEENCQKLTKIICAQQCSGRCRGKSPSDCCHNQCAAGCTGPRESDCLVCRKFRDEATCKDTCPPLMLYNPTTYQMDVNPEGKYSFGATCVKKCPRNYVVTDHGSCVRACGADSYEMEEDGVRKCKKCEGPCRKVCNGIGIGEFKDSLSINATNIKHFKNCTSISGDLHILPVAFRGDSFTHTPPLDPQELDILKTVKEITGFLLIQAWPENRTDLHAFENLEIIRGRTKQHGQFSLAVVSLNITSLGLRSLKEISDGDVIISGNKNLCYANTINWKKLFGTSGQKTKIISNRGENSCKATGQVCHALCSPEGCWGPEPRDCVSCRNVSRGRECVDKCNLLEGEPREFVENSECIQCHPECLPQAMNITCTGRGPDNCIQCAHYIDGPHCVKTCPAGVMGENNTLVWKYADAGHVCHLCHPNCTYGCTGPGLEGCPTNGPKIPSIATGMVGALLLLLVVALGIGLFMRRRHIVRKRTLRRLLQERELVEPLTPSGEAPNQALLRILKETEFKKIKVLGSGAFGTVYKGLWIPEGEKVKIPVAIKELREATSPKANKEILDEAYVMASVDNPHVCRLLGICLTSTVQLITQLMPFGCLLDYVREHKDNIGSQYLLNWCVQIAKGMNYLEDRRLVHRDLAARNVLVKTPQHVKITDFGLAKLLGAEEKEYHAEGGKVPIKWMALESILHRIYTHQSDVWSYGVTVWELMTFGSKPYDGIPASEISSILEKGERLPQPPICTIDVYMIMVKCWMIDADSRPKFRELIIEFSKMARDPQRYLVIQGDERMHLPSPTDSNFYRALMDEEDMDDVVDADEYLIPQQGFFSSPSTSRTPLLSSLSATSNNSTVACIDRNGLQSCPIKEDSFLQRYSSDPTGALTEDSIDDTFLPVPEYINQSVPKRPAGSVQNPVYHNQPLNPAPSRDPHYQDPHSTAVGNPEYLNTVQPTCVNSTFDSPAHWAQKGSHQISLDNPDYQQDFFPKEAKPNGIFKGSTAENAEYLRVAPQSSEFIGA
For assay [3], the target named is T1, Vascular endothelial growth factor receptor 2. As to the kind of experiment: Inhibition of VEGFR2 (unknown origin) using poly(Glu:Tyr) as substrate by ELISA-based method.
For assay [4], the target named is Receptor-type tyrosine-protein kinase FLT3 (Homo sapiens, UniProt P36888). Briefly: Inhibition of Flt3 (unknown origin) using poly(Glu:Tyr) as substrate by ELISA-based method.
Assay [5] has as its target Cyclin-dependent kinase 1 (Homo sapiens, UniProt P06493). Briefly: Inhibition of CDK1 (unknown origin) using […] as substrate after 60 mins by TR-FRET assay. Background: Time-resolved FRET reads energy transfer from a long-lived donor to a nearby acceptor.
The target of another assay is Aurora kinase A (Homo sapiens, UniProt O14965). Briefly: Inhibition of Aurora A (unknown origin) using poly(Glu:Tyr) as substrate by ELISA-based method. (In general: An ELISA detects its analyte on a solid surface through an enzyme-linked reagent.)
Sequence of Aurora kinase A (O14965 whole entry): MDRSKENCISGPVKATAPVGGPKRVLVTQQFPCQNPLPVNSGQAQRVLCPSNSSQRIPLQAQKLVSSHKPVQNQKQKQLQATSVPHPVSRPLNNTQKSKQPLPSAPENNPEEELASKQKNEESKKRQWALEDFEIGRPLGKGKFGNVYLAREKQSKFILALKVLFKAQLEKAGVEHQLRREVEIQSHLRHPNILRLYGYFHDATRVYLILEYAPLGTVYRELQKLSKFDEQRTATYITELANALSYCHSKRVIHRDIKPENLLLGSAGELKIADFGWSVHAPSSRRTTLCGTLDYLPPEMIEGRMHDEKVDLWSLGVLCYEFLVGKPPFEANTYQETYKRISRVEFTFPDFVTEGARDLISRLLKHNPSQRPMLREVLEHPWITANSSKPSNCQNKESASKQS
Assay [6] deals with T1, Vascular endothelial growth factor receptor 2. Briefly: Inhibition of VEGFR2 (unknown origin) autophosphorylation after 2 hrs by cell-based assay.
The target in assay [7] is Aurora kinase A (Homo sapiens) (UniProt O14965). As to the kind of experiment: Inhibition of human aurora A at 10 uM after 20 to 40 mins by liquid scintillation counting analysis in presence of […].
Sequence of Aurora kinase A (Homo sapiens) (O14965 whole entry): as above
The nature of assay [8]: Cytotoxicity against human HL60 cells. The assay is classed as functional, cell-based. To be noted: HL-60.
The target of assay [9] is Mast/stem cell growth factor receptor Kit (Homo sapiens, UniProt P10721). As to the kind of experiment: Inhibition of N-terminal GST-tagged recombinant kit (unknown origin) using poly(Glu:Tyr) as substrate by ELISA-based method.
Sequence of Mast/stem cell growth factor receptor Kit (P10721 whole entry): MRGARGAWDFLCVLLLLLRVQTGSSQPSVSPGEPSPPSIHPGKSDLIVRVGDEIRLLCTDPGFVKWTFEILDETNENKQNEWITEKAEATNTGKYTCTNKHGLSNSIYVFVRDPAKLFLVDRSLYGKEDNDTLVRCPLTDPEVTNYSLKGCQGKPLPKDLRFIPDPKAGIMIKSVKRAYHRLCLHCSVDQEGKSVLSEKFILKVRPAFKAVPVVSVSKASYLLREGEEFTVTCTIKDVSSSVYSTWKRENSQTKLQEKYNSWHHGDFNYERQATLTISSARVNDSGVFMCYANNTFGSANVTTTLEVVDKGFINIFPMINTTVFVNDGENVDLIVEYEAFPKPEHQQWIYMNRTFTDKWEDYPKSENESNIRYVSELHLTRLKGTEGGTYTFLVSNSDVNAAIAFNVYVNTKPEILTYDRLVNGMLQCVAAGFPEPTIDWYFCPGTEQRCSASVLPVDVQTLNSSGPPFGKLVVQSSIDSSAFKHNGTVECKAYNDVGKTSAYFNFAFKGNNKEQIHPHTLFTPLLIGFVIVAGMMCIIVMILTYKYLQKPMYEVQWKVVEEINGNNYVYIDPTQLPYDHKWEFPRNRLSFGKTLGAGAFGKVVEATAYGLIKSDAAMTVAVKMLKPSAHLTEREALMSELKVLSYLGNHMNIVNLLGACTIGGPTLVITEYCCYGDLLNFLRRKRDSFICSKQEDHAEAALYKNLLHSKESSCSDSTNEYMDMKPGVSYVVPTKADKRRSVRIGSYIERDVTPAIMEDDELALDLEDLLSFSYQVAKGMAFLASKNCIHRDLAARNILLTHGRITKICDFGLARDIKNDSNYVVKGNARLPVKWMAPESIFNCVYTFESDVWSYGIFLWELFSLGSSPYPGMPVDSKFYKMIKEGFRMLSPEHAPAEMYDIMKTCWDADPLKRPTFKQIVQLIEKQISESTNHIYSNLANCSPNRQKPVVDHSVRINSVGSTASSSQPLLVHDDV
The target in assay [10] is T1, Vascular endothelial growth factor receptor 2. Briefly: Inhibition of VEGFR2 (unknown origin) using poly(Glu,Ala,Tyr) (6:3:1) as substrate after 20 mins by ELISA.

The structures appear in SMILES notation. Calls of active or inactive are those of the source. The rule behind the calls is not given here. Where only a bound is given, the exact number is not on record here.

Sequence of Cyclin-dependent kinase 1 (P06493 whole entry): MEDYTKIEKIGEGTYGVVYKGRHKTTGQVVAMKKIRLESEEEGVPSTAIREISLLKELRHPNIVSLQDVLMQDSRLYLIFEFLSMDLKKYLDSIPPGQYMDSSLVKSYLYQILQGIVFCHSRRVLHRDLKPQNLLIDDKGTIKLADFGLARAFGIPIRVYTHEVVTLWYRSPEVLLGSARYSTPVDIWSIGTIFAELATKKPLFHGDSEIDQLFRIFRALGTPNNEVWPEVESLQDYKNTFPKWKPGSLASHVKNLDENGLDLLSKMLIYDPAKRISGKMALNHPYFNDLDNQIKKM

Take `Clc1ccc(-n2ncc3c(Nc4nc5ccc(Cl)cc5s4)ncnc32)cc1`: the concentration for half-maximal inhibition (IC50) in the assay with MCF7 stood at 85.6 µM.

Regarding `Clc1ccc(COc2ccc(Nc3ncnc4c3cnn4-c3ccc(Cl)cc3)cc2)cc1`, the IC50 in the assay with MCF7 was > 100 µM.

With `O=C(Nc1ccc(Nc2ncnc3c2cnn3-c2ccccc2)cc1)Nc1ccccc1Cl`, in assay [1], the Activity was -5%. Further, in the assay on MCF7, the midpoint of inhibition, the IC50, lay at 55.1 µM.

Regarding `O=c1sc2cc(Nc3ncnc4c3cnn4-c3ccccc3)ccc2n1Cc1ccc(Cl)c(Cl)c1`, the Activity in [1] is 1%. In addition, half-maximal inhibition in the assay with MCF7 (IC50) was put at 1.6 µM.

`O=C(Nc1ccc(Nc2ncnc3c2cnn3-c2ccc(Cl)cc2)cc1)Nc1ccccc1Cl`: the Activity in assay [1] amounted to 1%. In the assay on MCF7, this compound displayed an IC50 of 9.05 µM.

As for `Cc1cc2nc(Nc3ncnc4c3cnn4-c3ccccc3)sc2cc1C`, the IC50 in the assay with MCF7 is > 100 µM.

Turning to `O=C(Nc1cccc(Cl)c1)c1ccc(Nc2ncnc3c2cnn3-c2ccccc2)cc1`, the inhibition result in assay [2] is “inactive”. Besides, the Activity in assay [1] is 2%. Further, in the assay with MCF7, half-maximal inhibition (IC50) required 1.12 µM.

Turning to `O=C(Nc1ccc(Oc2ncnc3[nH]ncc23)cc1)Nc1ccc(Cl)c(C(F)(F)F)c1`, the values for the IC50 in assay [3] and in assay [4] were 2.25 µM and 0.004 µM, respectively.

With `O=C(Nc1ccccc1)Nc1ccc(Oc2ncnc3c2cnn3-c2ccccc2)cc1`, the Activity in [1] amounted to 1%. Moreover, the IC50 in the assay with MCF7 was > 100 µM.

Regarding `CC(C)n1ncc2cnc(Nc3cc(C(N)=O)n(C)c3)nc21`, the IC50 in assay [5] is 0.024 µM; against Aurora kinase A it was 0.017 µM.

`Clc1ccc(COc2ccc(Nc3ncnc4c3cnn4-c3ccccc3)cc2)cc1` yielded an IC50 in the assay on MCF7 of 4.36 µM.

Take `O=C(Nc1ccc(Cl)c(C(F)(F)F)c1)c1ccc(Nc2ncnc3c2cnn3-c2ccccc2)cc1`: in the assay on MCF7, half-maximal inhibition (IC50) was put at 75.9 µM.

`Cc1ccc(C(=O)Nc2cccc(C(F)(F)F)c2)cc1Nc1nc(-c2cccnc2)nc2c1cnn2C` displayed an EC50 in [6] of 4.2 µM.

With `O=c1sc2cc(Nc3ncnc4c3cnn4-c3ccccc3)ccc2n1Cc1cccc(Br)c1`, in assay [1], the Activity was 2%. In the assay on MCF7, this compound came in with an IC50 of 46.1 µM.

For the compound `O=C(Nc1ccc(Nc2ncnc3c2cnn3-c2ccccc2)cc1)Nc1cccc(Br)c1`, the Activity in assay [1] is -3%. Also, 36.3 µM corresponded to half-maximal inhibition in the assay on MCF7 (IC50).

As to `O=C(Nc1ccc(Nc2ncnc3c2cnn3-c2ccccc2)cc1)Nc1cccc(Cl)c1`, the inhibition entry in assay [7] is “inactive”. In addition, the Activity in assay [1] is -3%. The same compound showed an IC50 in the assay on MCF7 of 4.2 µM.

For the compound `O=C(NC1CCCCC1)c1ccc(Nc2ncnc3c2cnn3-c2ccc(Cl)cc2)cc1`, in assay [1], the Activity was -4%. Moreover, in the assay with MCF7, the IC50 is > 100 µM.

In assay [8], `N=c1c2cnn(-c3ccccc3)c2ncn1-c1ccc(-c2ccc(C(F)(F)F)cc2)s1` gave an IC50 of 0.21 µM.

For `O=C(Nc1ccccc1)Nc1ccc(Oc2ncnc3c2cnn3-c2ccc(Cl)cc2)cc1`, the Activity in assay [1] is -3%. In the assay with MCF7, this compound returned an IC50 of 82.5 µM.

In the case of `Clc1ccc2nc(Nc3ncnc4c3cnn4-c3ccccc3)sc2c1`, in the assay on MCF7, the IC50 is > 100 µM.

For the compound `O=C(Nc1ccccc1Cl)c1ccc(Nc2ncnc3c2cnn3-c2ccc(Cl)cc2)cc1`, the Activity in [1] is -8%. Also, the IC50 in the assay on MCF7 was > 100 µM.

Consider `O=C(Nc1ccc(Cl)c(C(F)(F)F)c1)c1ccc(Nc2ncnc3c2cnn3-c2ccc(Cl)cc2)cc1`, for which the IC50 in the assay with MCF7 was found to be 4.92 µM.

Consider `Cc1ccccc1NC(=O)Nc1ccc(Nc2ncnc3c2cnn3-c2ccc(Cl)cc2)cc1`, for which, in [1], the Activity was determined as 3%. In addition, the IC50 with MCF7 worked out at 3.15 µM.

For `O=C(Nc1ccc(OC(F)(F)F)cc1)c1sccc1NCc1ccnc2ccccc12` [OSI-930], the IC50 in [9] stood at 0.08 µM.

On to `O=c1sc2cc(Nc3ncnc4c3cnn4-c3ccccc3)ccc2n1Cc1ccc(Cl)cc1Cl`, for which the Activity in assay [1] is -5%. Moreover, in the assay with MCF7, half-maximal inhibition (IC50) required 44 µM.

With `O=c1sc2cc(Nc3ncnc4c3cnn4-c3ccc(Cl)cc3)ccc2n1Cc1ccc(Cl)cc1Cl`, the Activity in [1] came to 1%. In addition, the IC50 in the assay with MCF7 is > 100 µM.

Turning to `Cc1cc(F)c(Nc2ncnc3cc(OCc4ccccc4)ccc23)cc1O`, the IC50 in assay [10] was < 0.002 µM.
